Measured values from PubChem BioAssay (NCI).
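Exposure lasted 48 hours, with cells grown in 96-well plates and compounds tested at five concentrations. TGI is the concentration that stops growth completely.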

How the values were obtained:
Test in all cases: NCI-60 cell line screen, 48 h
ACHN renal = system: ACHN renal
COLO 205 colon = system: COLO 205 colon
DU-145 prostate = system: DU-145 prostate
HCT-15 colon = system: HCT-15 colon
HL-60(TB) leukemia = system: HL-60(TB) leukemia
LOX IMVI melanoma = system: LOX IMVI melanoma
MALME-3M melanoma = system: MALME-3M melanoma
MCF7 breast = system: MCF7 breast
MDA-N = system: MDA-N
MOLT-4 leukemia = system: MOLT-4 leukemia
NCI-H522 lung = system: NCI-H522 lung
NCI/ADR-RES ovarian = system: NCI/ADR-RES ovarian
PC-3 prostate = system: PC-3 prostate
SF-295 CNS = system: SF-295 CNS
SK-MEL-2 melanoma = system: SK-MEL-2 melanoma
SK-MEL-5 melanoma = system: SK-MEL-5 melanoma
SNB-19 CNS = system: SNB-19 CNS
UO-31 renal = system: UO-31 renal

Row | SMILES | TGI (ACHN renal) [µM] | TGI (COLO 205 colon) [µM] | TGI (DU-145 prostate) [µM] | TGI (HCT-15 colon) [µM] | TGI (HL-60(TB) leukemia) [µM] | TGI (LOX IMVI melanoma) [µM] | TGI (MALME-3M melanoma) [µM] | TGI (MCF7 breast) [µM] | TGI (MDA-N) [µM] | TGI (MOLT-4 leukemia) [µM] | TGI (NCI-H522 lung) [µM] | TGI (NCI/ADR-RES ovarian) [µM] | TGI (PC-3 prostate) [µM] | TGI (SF-295 CNS) [µM] | TGI (SK-MEL-2 melanoma) [µM] | TGI (SK-MEL-5 melanoma) [µM] | TGI (SNB-19 CNS) [µM] | TGI (UO-31 renal) [µM]
1 | c1ccc(/N=N/Nc2ccc(-c3nc4ccccc4[nH]3)cc2)nc1 | 34.2 | > 100 | 27.7 | 69.9 | > 100 | 43.7 | 29.2 | 23.4 | 34.7 | 25.4 | 33.9 | > 100 | 47.2 | 35.9 | 62.5 | > 100 | 44 | 49.3
2 | O=c1[nH]nc(Cc2ccc(Cl)cc2)n1/N=C\c1ccc(/C=N/n2c(Cc3ccc(Cl)cc3)n[nH]c2=O)cc1 | > 100 | > 100 | > 100 | > 100 | > 100 | > 100 | > 100 | > 100 | > 100 | > 100 | > 100 | > 100 | > 100 | > 100 | > 100 | > 100 | > 100 | > 100
3 | Cc1cc(C)c2c(=O)n(CN3CCC(O)(c4ccccc4)CC3)sc2n1 | 37.9 | > 100 | > 100 | > 100 | 62.3 | > 100 | 32.9 | > 100 | 38.3 | 76.3 | 24.2 | > 100 | > 100 | > 100 | > 100 | > 100 | > 100 | 33.8
4 | N#CC1=C(N)OC(c2ccc([N+](=O)[O-])cc2)C1(C#N)C#N (stereo unspecified) | 23.8 | 16.6 | 32.1 | 27.4 | 7.84 | 21.6 | 24.1 | 42.4 | 24.6 | 63.3 | 17.8 | 51.7 | 34.7 | > 71.3 | 23 | 31.9 | > 53.2 | 11.5
5 | Cc1[nH]c(=O)nc(NCCNCCO)c1C(=O)Nc1c2ccccc2nc2ccccc12 | > 100 | > 100 | > 100 | > 100 | > 100 | > 100 | > 100 | > 100 | > 100 | > 100 | > 100 | > 100 | > 100 | > 100 | > 100 | > 100 | > 100 | > 100
6 | CN(C)c1ccc(/C=C(\NC(=O)c2ccccc2)C2NC(Cc3c[nH]c4ccccc34)C(=O)O2)cc1 (stereo unspecified) | > 100 | > 39.3 | > 100 | > 93.5 | 39.9 | > 54.3 | 79.6 | > 100 | > 100 | > 100 | 24.4 | > 100 | > 100 | > 100 | > 100 | > 100 | > 100 | > 100
7 | O=c1oc2ccc3ccccc3c2cc1-c1nc2ccccc2o1 | 29.9 | > 100 | > 52.3 | > 100 | > 100 | 32.8 | 26.5 | 20.5 | > 54.4 | > 79 | 59.4 | 51.7 | > 74.9 | > 59.3 | 60.1 | 58.8 | > 46.6 | > 54.8
